Experimental data as given in patent US20240391875A1, “ISOQUINOLINONES AND QUINOLINONES AS MODULATORS OF POLRMT” (Pretzel Therapeutics, Inc., priority 2021, published 2024).

target: POLRMT (Homo sapiens, UniProt O00411); assay: homogeneous TR-FRET assay of mitochondrial transcription (inhibition of POLRMT); type: biochemical; conditions: isoquinolinone compounds (Table 1)
Method: The inhibitory activity of the compounds of the present invention against POLRMT were determined by assays based on Bergbrede, T., et al., “An adaptable high-throughput technology enabling the identification of specific transcription modulators,” SLAC Discov., 22, 378-386 (2017).
The ability of some compounds of the present invention to inhibit POLRMT were determined in a homogeneous TR-FRET Assay using high-throughput screening in a 384-well plate format. This method is used to monitor the activity of mitochondrial transcription through measurement of its product, a 407 bp long RNA transcript. Detection of the product is facilitated by hybridization of two DNA-oligonucleotide probes to specific and adjacent sequences within the RNA product sequence. Upon annealing of the probes, two fluorophores are coupled directly to an acceptor nucleotide probe (ATTO647, 5′), or introduced via a coupled streptavidin with a biotinylated donor nucleotide probe (Europium cryptate) that is brought into sufficient proximity to serve as a fluorescence-donor-acceptor pair. Thus, a FRET signal at 665 nm is generated upon excitation at 340 nm.
Proteins used as transcription factors (POLRMT: NP_005026.3, TFAM: NP_003192.1, TFB2M: NP_071761.1) are diluted from their stocks to working concentrations of 1 μM, 20 μM and 4 μM respectively, in a dilution buffer containing 20 mM Tris-HCl (pH 8.0), 200 mM NaCl, 10% (v/v) glycerol, 1 mM Dithiothreitol (DTT), 0.5 mM EDTA.
DNA template is a pUC18 plasmid with the mitochondrial light strand promotor sequence (1-477) cloned between HindIII and BamHI sites. The DNA template is restriction linearized proximal to the promotor 3′-end (pUC-LSP).
The reaction mixture (10 uL) containing 7.5 nM POLRMT, 15 nM of TFB2M, 30 nM of TFAM, 0.5 nM of DNA template and 500 μM nucleotide triphosphate mix (NTPs) in a reaction buffer (containing 10 mM Tris-HCl (pH 7.5), 10 mM MgCl2, 40 mM NaCl, 10 mM DTT, 0.005% (w/v) Tween-20, 160 units/ml Rnase inhibitor and 0.1 mg/mL BSA) are dispensed to compounds in microplates, using a Thermo Multidrop® dispenser, and incubated at 37° C. in a VWR INCU-Line incubator for 60 minutes after mixing. No nucleotide triphosphate mix is added to negative control samples. Microplates with compounds to be tested in the assay are prepared from 10 mM compound stocks in 100% DMSO, equal amounts of DMSO without any compound are added to positive control and negative control samples.
During the incubation, a mix of the detection reagents is prepared in a buffer such that the enzymatic reaction is terminated due to chelating of Mg-ions and increased ionic strength, containing 50 mM Tris-HCl (pH 7.5), 700 mM NaCl, 20 mM EDTA, and 0.010% (w/v) Tween-20. Europium-streptavidin is pre-incubated with a 200-fold molar excess of a random sequence oligonucleotide to block unspecific binding of oligo, for two hours at ambient temperature in the dark. Afterwards, the blocked Europium-streptavidin is kept on ice until use.
At the end of the enzymatic reaction time, 5 μL detection oligo mix in the detection buffer is added, and assay plates are mixed and kept at ambient temperature for one hour, protected from light. The concentration of the Acceptor nucleotide oligo (e.g., ATTO647N-5′-[…]-3′) and Donor nucleotide oligo (e.g., bio-5′-AACACATCTCT(-bio)GCCAAACCCCA-bio-3′) in each assay well is 1 nM, and 3 nM, respectively.
After incubation with oligo mix, 5 μL of pre-blocked Europium-streptavidin reagent is dispensed to each assay well, assay plates are again mixed and kept at ambient temperature for one hour, protected from light.
The generated signal is measured with BMG Pherastar microtiter plate reader with a TRF light unit, using excitation at 340 nm, an integration time of 200 μs, and a delay time of 100 μs, before detection at 620 nm and 665 nm. The ratio of donor- and acceptor-fluorescence is used as a measure of the generated transcript product (i.e. enzymatic activity).

POLRMT, sequence (O00411 42-1230): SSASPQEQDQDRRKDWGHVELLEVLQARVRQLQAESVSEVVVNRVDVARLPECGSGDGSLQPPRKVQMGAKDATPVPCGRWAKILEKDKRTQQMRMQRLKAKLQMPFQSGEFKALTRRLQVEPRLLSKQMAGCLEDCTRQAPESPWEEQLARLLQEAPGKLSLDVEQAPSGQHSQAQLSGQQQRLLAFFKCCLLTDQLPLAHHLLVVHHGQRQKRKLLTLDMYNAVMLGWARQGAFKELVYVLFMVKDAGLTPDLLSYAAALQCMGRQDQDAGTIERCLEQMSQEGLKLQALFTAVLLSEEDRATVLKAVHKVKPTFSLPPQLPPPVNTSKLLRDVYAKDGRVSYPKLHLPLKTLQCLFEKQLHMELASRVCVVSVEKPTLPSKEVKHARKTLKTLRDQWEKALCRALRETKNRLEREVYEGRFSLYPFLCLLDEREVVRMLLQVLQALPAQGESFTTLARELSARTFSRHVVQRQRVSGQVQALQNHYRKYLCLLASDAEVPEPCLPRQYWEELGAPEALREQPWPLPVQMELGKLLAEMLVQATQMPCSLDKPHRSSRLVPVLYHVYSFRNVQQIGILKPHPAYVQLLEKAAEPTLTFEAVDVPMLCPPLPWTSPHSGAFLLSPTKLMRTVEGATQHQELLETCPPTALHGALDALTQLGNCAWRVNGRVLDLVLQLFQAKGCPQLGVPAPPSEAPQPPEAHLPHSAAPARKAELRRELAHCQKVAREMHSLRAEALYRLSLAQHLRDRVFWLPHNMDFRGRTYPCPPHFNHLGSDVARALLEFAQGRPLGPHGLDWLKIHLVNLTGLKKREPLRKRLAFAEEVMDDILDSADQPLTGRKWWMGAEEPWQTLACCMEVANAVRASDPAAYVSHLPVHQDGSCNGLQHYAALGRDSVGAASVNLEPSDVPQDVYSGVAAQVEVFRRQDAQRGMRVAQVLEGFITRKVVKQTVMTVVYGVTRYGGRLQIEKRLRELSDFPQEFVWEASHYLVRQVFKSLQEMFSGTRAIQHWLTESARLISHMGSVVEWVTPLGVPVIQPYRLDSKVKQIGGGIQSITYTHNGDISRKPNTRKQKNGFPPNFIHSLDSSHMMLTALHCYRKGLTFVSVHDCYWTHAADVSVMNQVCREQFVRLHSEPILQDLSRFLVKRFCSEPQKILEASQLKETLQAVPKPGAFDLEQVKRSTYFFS

Q: With `COCC(C#N)Oc1ccc2c(-c3ccccc3C)c[nH]c(=O)c2c1` (single isomer, unassigned) [Example 76, 3-methoxy-2-((1-oxo-4-(o-tolyl)-1,2-dihydroisoquinolin-7-yl)oxy)propanenitrile] as the compound, how does the IC50 read?
A: 200 nM

Q: Which IC50 does the source give for `C[C@@H](Oc1ccc2c(-c3ccc(F)cc3Cl)c[nH]c(=O)c2c1)C(=O)N1CCC[C@H](C(=O)O)C1` [Example 62, (S)-1-((R)-2-((4-(2-chloro-4-fluorophenyl)-1-oxo-1,2-dihydroisoquinolin-7-yl)oxy)propanoyl)piperidine-3-carboxylic acid] here?
A: 60 nM

Q: How did the IC50 turn out when `C[C@@H](Oc1ccc2c(-c3ccc(F)cc3Cl)c[nH]c(=O)c2c1)C(=O)N1C2CCC1COC2` [Example 92, 7-(((2R)-1-(3-oxa-8-azabicyclo[3.2.1]octan-8-yl)-1-oxopropan-2-yl)oxy)-4-(2-chloro-4-fluorophenyl)isoquinolin-1(2H)-one] was run?
A: 80 nM

Q: For `Cc1ccccc1-c1c[nH]c(=O)c2cc(O[C@H](C)C(=O)N3CCC[C@H](C(N)=O)C3)ccc12` [Example 94, (S)-1-((R)-2-((1-oxo-4-(o-tolyl)-1,2-dihydroisoquinolin-7-yl)oxy)propanoyl)piperidine-3-carboxamide], which IC50 is on record?
A: 70 nM

Q: With `Cc1ccccc1-c1c[nH]c(=O)c2cc(OC(C)C(F)(F)F)ccc12` (centres unmarked) [Example 61, 4-(o-tolyl)-7-((1,1,1-trifluoropropan-2-yl)oxy)isoquinolin-1(2H)-one] as the compound, how does the IC50 read?
A: 400 nM

Q: For `COc1ccc2c(-c3ccc(F)cc3Cl)c[nH]c(=O)c2c1` [Example 1, 4-(2-chloro-4-fluorophenyl)-7-methoxyisoquinolin-1(2H)-one], which IC50 is on record?
A: 10000 nM

Q: For `Cc1ccccc1-c1c[nH]c(=O)c2cc(NC(C)C(N)=O)ccc12` (centres unmarked) [Example 68], which IC50 is on record?
A: 11000 nM

Q: `C[C@@H](Oc1ccc2c(-c3ccc(F)cc3Cl)c[nH]c(=O)c2c1)C(=O)N1CCN(S(C)(=O)=O)CC1` [Example 130, (R)-4-(2-chloro-4-fluorophenyl)-7-((1-(4-(methylsulfonyl)piperazin-1-yl)-1-oxopropan-2-yl)oxy)isoquinolin-1(2H)-one] was tested. Which IC50 did it give?
A: 2000 nM

Q: Which IC50 does the source give for `C[C@@H](Oc1ccc2c(-c3ccc(F)cc3Cl)c[nH]c(=O)c2c1)C(=O)N1CCCC(S(C)(=O)=O)C1` (single isomer, unassigned) [Example 96] here?
A: 2000 nM

Q: How did the IC50 turn out when `Cc1ccccc1-c1c[nH]c(=O)c2cc(O[C@H](C)C(=O)N3C4CCCC3CC4)ccc12` [Example 86, 7-(((2R)-1-(8-azabicyclo[3.2.1]octan-8-yl)-1-oxopropan-2-yl)oxy)-4-(o-tolyl)isoquinolin-1(2H)-one] was run?
A: 20 nM

Q: `Cc1ccccc1-c1c[nH]c(=O)c2cc(OCC(F)(F)F)ccc12` [Example 65, 4-(o-tolyl)-7-(2,2,2-trifluoroethoxy)isoquinolin-1(2H)-one] was tested. Which IC50 did it give?
A: 30 nM

Q: How did the IC50 turn out when `COCC(C)Oc1ccc2c(-c3ccccc3C)c[nH]c(=O)c2c1` (single isomer, unassigned) [Example 27, 7-((1-methoxypropan-2-yl)oxy)-4-(o-tolyl)isoquinolin-1(2H)-one] was run?
A: 1000 nM

Q: `Cc1ccccc1-c1c[nH]c(=O)c2cc(OCC(=O)N(C)C)ccc12` [Example 8, N,N-dimethyl-2-((1-oxo-4-(o-tolyl)-1,2-dihydroisoquinolin-7-yl)oxy)acetamide] was tested. Which IC50 did it give?
A: 35000 nM

Q: With `Cc1ccccc1-c1c[nH]c(=O)c2cc(O[C@H](C)C(=O)N3CCC(C(=O)O)CC3)ccc12` [Example 24, (R)-1-(2-((1-oxo-4-(o-tolyl)-1,2-dihydroisoquinolin-7-yl)oxy)propanoyl)piperidine-4-carboxylic acid] as the compound, how does the IC50 read?
A: 50 nM

Q: For `C[C@@H](Oc1ccc2c(-c3ccc(F)cc3Cl)c[nH]c(=O)c2c1)C(=O)N1CC2CCC(C1)O2` [Example 105, 7-(((2R)-1-(8-oxa-3-azabicyclo[3.2.1]octan-3-yl)-1-oxopropan-2-yl)oxy)-4-(2-chloro-4-fluorophenyl)isoquinolin-1(2H)-one], which IC50 is on record?
A: 200 nM

Q: Which IC50 does the source give for `COCC(C#N)Oc1ccc2c(-c3ccccc3C)c[nH]c(=O)c2c1` (single isomer, unassigned) [Example 75, 3-methoxy-2-((1-oxo-4-(o-tolyl)-1,2-dihydroisoquinolin-7-yl)oxy)propanenitrile] here?
A: 4000 nM

Q: `Cc1ccccc1-c1c[nH]c(=O)c2cc(O[C@H](C)C(=O)N3CCCC(S(C)(=O)=O)C3)ccc12` (single isomer, unassigned) [Example 98] was tested. Which IC50 did it give?
A: 300 nM

Q: With `C[C@H]1CN(C(=O)[C@@H](C)Oc2ccc3c(-c4ccc(F)cc4Cl)c[nH]c(=O)c3c2)C[C@H](C)O1` (single isomer, unassigned) [Example 124] as the compound, how does the IC50 read?
A: 500 nM

Q: With `Cc1cccc(C)c1-c1c[nH]c(=O)c2cc(O[C@H](C)C(=O)O)ccc12` [Example 111, (R)-2-((4-(2,6-dimethylphenyl)-1-oxo-1,2-dihydroisoquinolin-7-yl)oxy)propanoic acid] as the compound, how does the IC50 read?
A: 90 nM

Q: Which IC50 does the source give for `O=c1[nH]cc(-c2ccc(F)cc2Cl)c2ccc(O)cc12` [Example 2, 4-(2-chloro-4-fluorophenyl)-7-hydroxyisoquinolin-1(2H)-one] here?
A: > 100000 nM

Q: For `Cc1ccccc1-c1c[nH]c(=O)c2cc(OCC(N)=O)ccc12` [Example 63, 2-((1-oxo-4-(o-tolyl)-1,2-dihydroisoquinolin-7-yl)oxy)acetamide], which IC50 is on record?
A: 3000 nM

Q: Which IC50 does the source give for `Cc1ccccc1-c1c[nH]c(=O)c2cc(NC(=O)C(C)C)ccc12` [Example 30, N-(1-oxo-4-(o-tolyl)-1,2-dihydroisoquinolin-7-yl)isobutyramide] here?
A: 2000 nM

Q: For `Cc1ccccc1-c1c[nH]c(=O)c2cc(NC(C)C(=O)N(C)C)ccc12` (centres unmarked) [Example 47], which IC50 is on record?
A: 11000 nM

Q: How did the IC50 turn out when `CC(=O)N(C)Cc1ccc2c(-c3ccccc3C)c[nH]c(=O)c2c1` [Example 45, N-methyl-N-((1-oxo-4-(o-tolyl)-1,2-dihydroisoquinolin-7-yl)methyl)acetamide] was run?
A: > 100000 nM

Q: For `Cc1ccccc1-c1c[nH]c(=O)c2cc(OC(C)C#N)ccc12` (single isomer, unassigned) [Example 12, 2-((1-oxo-4-(o-tolyl)-1,2-dihydroisoquinolin-7-yl)oxy)propanenitrile], which IC50 is on record?
A: 200 nM

Q: `CC(=O)Nc1ccc2c(-c3ccccc3C)c[nH]c(=O)c2c1` [Example 31, N-(1-oxo-4-(o-tolyl)-1,2-dihydroisoquinolin-7-yl)acetamide] was tested. Which IC50 did it give?
A: 8000 nM

Q: Which IC50 does the source give for `C[C@@H](Oc1ccc2c(-c3ccc(F)cc3Cl)c[nH]c(=O)c2c1)C(=O)N1CCO[C@H](CO)C1` [Example 106, 4-(2-chloro-4-fluorophenyl)-7-(((R)-1-((S)-2-(hydroxymethyl)morpholino)-1-oxopropan-2-yl)oxy)isoquinolin-1(2H)-one] here?
A: 600 nM

Q: How did the IC50 turn out when `C[C@@H](Oc1ccc2c(-c3ccc(F)cc3Cl)c[nH]c(=O)c2c1)C(=O)N1CCCC(S(C)(=O)=O)C1` (single isomer, unassigned) [Example 95] was run?
A: 1000 nM

Q: For `Cc1ccccc1-c1c[nH]c(=O)c2cc(O[C@H](C)C(=O)N3CCOCC3)ccc12` [Example 78, (R)-7-((1-morpholino-1-oxopropan-2-yl)oxy)-4-(o-tolyl)isoquinolin-1(2H)-one], which IC50 is on record?
A: 30 nM

Q: For `Cc1ccccc1-c1c[nH]c(=O)c2cc(CN)ccc12` [Example 38, 7-(aminomethyl)-4-(o-tolyl)isoquinolin-1(2H)-one], which IC50 is on record?
A: > 100000 nM

same assay, conditions: quinolinone compounds (Table 2)

Q: `Cc1ccccc1-c1cc(=O)[nH]c2cc(OC(C)C)ccc12` [Example Q10, 7-isopropoxy-4-(o-tolyl)quinolin-2(1H)-one] was tested. Which IC50 did it give?
A: 2000 nM

Q: `Cc1ccccc1-c1cc(=O)[nH]c2cc(O[C@H](C)C(=O)O)ccc12` [Example Q13, (R)-2-((2-oxo-4-(o-tolyl)-1,2-dihydroquinolin-7-yl)oxy)propanoic acid] was tested. Which IC50 did it give?
A: 3000 nM
